According to patent US8465973B2, “Topical compositions containing phosphorylated polyphenols” (Estee Lauder Coordination Center N.V., priority 2004, dated 2013):
In brackets after ≈: the same amount, converted by molar mass. Each block holds one compound with its values, some of them ahead of it.

How the values were obtained:
[1] = tested on: acid phosphatase from wheat germ; test: Enzymatic dephosphorylation of resveratrol^Pi by acid phosphatase, HPLC analysis; conditions: resveratrol^Pi 1.6 mg/ml, acid phosphatase 0.056 U/ml, pH 5.5; FIG. 2
Method: The experimental conditions for the HPLC analysis of resveratrol are shown below.
Phosphorylated resveratrol was incubated in the presence of acid phosphatase from wheat germ (Sigma, P3627 lot 081K7071) in 0.147M (NH4)2SO4/0.81 mM MgCl2 pH 5.5. The concentration of resveratrol^Pi and acid phosphatase was 1.6 mg/ml and 0.056 U/ml respectively. Aliquots were taken at different time intervals and analysed by HPLC (conditions see above).

[2] = Visual (color) stability of a cosmetic formulation; format: physicochemical; conditions: for color of formulation: 0.1% resveratrol or 0.2% resveratrol^Pi in base formula
Method: Three base formulas are prepared, the control containing no resveratrol, the other two formulas being identical to the control but for one containing 0.1% unmodified resveratrol, and the other containing 0.2% of phosphorylated resveratrol (Resveratrol^Pi).
The color of the control base is white, and with addition of the resveratrols, it takes on a light beige color. Each formulation is observed once a week for a period of four weeks to determine the presence of a color change (indicative of changing color stability), under three different environmental conditions: 50° C., 4° C., and room temperature (RT).

[3] = Water solubility of resveratrol and resveratrol triphosphate; format: physicochemical
Method: The water solubility of resveratrol is tested at pH 7 in 1 mM potassium phosphate buffer at room temperature. Ten mg of resveratrol (M.W. 228.24) are suspended in 10 ml of buffer. This suspension, corresponding to a concentration of 1 g/l or 4.38 mM, is agitated for 24 hours in a rotary shaker at 25° C. in the dark. The sample is centrifuged at 14,000 rpm for 5 minutes and an OD of 6.26 is determined at 305 nm wavelength at which the ε mM of resveratrol has a value of 28.1. Assuming complete solubility of resveratrol, the OD that should have been obtained is 123.1 (4.38×28.1). With an observed OD of 6.26, the percentage of dissolved resveratrol is 5.1% (6.26×100/123.1) or […].
(§1) In contrast, the solubility and stability of the resveratrol triphosphate tested under the same conditions, in water of different pH, in the range of 4 to 9, at room temperature.

[4] = tested on: extractable fraction of human SC D-squame tape strippings (acid phosphatase present on the skin); test: Dephosphorylation of resveratrol^Pi by extractable fraction of stratum corneum D-squame tape strippings; conditions: resveratrol^Pi 0.22 mg/ml or 0.47 mM, FIG. 3; for correlation (r) of amount with incubation time: N=15
Method: D-squame tape strippings were collected on the inner lower arm of one panelist. […] The extractable fraction was transferred to another vial and mixed with resveratrol^Pi stock-solution. The concentration of resveratrol^Pi during the incubation was 0.22 mg/ml or 0.47 mM. At various incubation time points a 25 μl aliquot of the incubation mixture was diluted in 25 μl 10 mM o-phosphoric acid and 50 μl of MeOH and injected onto the HPLC system.

[5] = Stability of resveratrol triphosphate in solid and water solution form; format: physicochemical
Excerpt: as §1

Compound: resveratrol diphosphate
- incubation time at which the maximum amount is reached [1]: around 85 minutes

- color of formulation ([2]; 1 week, 4° C.): lt beige
- color of formulation ([2]; 1 week, 50° C.): lt beige
- color of formulation ([2]; 1 week, room temperature): lt beige
- color of formulation ([2]; 2 weeks, 4° C.): lt beige
- color of formulation ([2]; 2 weeks, 50° C.): lt beige
- color of formulation ([2]; 2 weeks, room temperature): lt beige
- color of formulation ([2]; 3 weeks, 4° C.): lt beige
- color of formulation ([2]; 3 weeks, room temperature): lt beige
- color of formulation ([2]; 4 weeks, 4° C.): lt beige (sl lighter beige than RT)
- color of formulation ([2]; 4 weeks, room temperature): lt beige/beige
- solubility at 24 h ([3]; 25 °C, pH 7, aqueous buffer, thermodynamic from solid): 5.1 µg/mL (≈ 22.3 µM)
- percentage of dissolved resveratrol ([3]; pH 7, 1 mM potassium phosphate buffer, 1 g/l suspension, 24 hours, 25° C., OD at 305 nm): 5.1%
- correlation (r) of amount with incubation time [4]: 0.99
Compound: Oc1ccc(/C=C/c2cc(O)cc(O)c2)cc1 [resveratrol]
- color of formulation ([2]; 3 weeks, 50° C.): lt beige (vsl darker with sl top oxidation)
- color of formulation ([2]; 4 weeks, 50° C.): beige (sl darker than RT with top oxidation)

Compound: resveratrol triphosphate
- stability [5]: stable in both solid and water solution form for periods in excess of one year
- color development versus unmodified resveratrol ([2]; at the end of four weeks): less color development than the unmodified resveratrol
- conversion on treatment with acid phosphatase (HPLC) [1]: decreased gradually
- solubility ([3]; water of different pH, range 4 to 9, room temperature): > 30 % w/v
- correlation (r) of amount with incubation time [4]: −0.69
- conversion on incubation with extractable fraction of SC D-squame tape strippings (HPLC) ([4]; pH 5.6): decreased gradually
